Source: US20170296573A1, “ANTITUMOR DRUG COMPRISING BETA-CYCLODEXTRIN” (JRC G. K., priority 2014, published 2017)

Key:
[1] = mice, injected, four hours later; cited from earlier work
Bak-Bcl-xL complex = Bak-Bcl-xL complex (Homo sapiens, UniProt Q07817); test: Example 7: immunoprecipitation of Bak-bound proteins in RCC4 cells, Bcl-xL; format: cell-based; conditions: RCC4 cells pre-treated with 2DG and bCD, 3 μM ABT
Experimental: (§1) (A and B) RCC4 cells were treated with 2DG, bCD, 2DG +bCD, or left untreated as done in Example 6. Approximately 20 μg of the whole cell lysates (WCL) were analyzed by western blotting. Bak- and Bcl-xL-bound proteins were immune-precipitated from approximately 200 μg of cell lysates and analyzed by western blotting. (C) 3 μM ABT with or without the 20 μM pan-caspase inhibitor z-VAD was added to the cells pre-treated with the combination of 2DG and bCD over 2 hours, and analyzed by Western blotting for caspase 9. […]

cytochrome c = test: Example 7: cytochrome c release assay in RCC4 cells; format: cell-based; conditions: RCC4 cells pre-treated with 2DG-bCD
Experimental: RCC4 cells grown and treated on glass cover slips were first fixed with 3.7% formaldehyde in PBS for 10 minutes. Then the cover slips were briefly exposed to 100% methanol kept in a −20° C. freezer. Cover slips were incubated with 10% serum in PBS before being stained with mouse anti-cytochrome c antibody overnight. Next morning, the cover slips were washed and blocked with 10% serum in PBS for 30 minutes. Then they were exposed to secondary anti-mouse antibody conjugated with AF488 for 30 minutes. They were washed again and exposed to propidium iodide (1 μg/mL in PBS) for 15 minutes to stain DNA in the nucleus before being washed and mounted on the glass slides. We used a Keyence BZ9000 microscope with a 100× objective lens for observation. […] (E) RCC4 cells treated with 2DG-bCD (left panel), RCC4 cells treated with 2DG-bCD-ABT (middle panel), and RCC4 cells treated with 2DG-bCD-ABT in the presence of 20 μM pan-caspase inhibitor z-VAD (right panel) were immunostained using anti-cytochrome c antibody and GFP-conjugated anti-mouse antibody. Nuclei were stained red with propidium iodide.

caspase 9 = test: Example 7: caspase 9 cleavage in RCC4 cells, Western blot; format: cell-based
Experimental: as §1

AKT [2] = test: Example 10 Test A: AKT activation in UOK121 cells with α-, β-, γ-cyclodextrins; format: cell-based, human; conditions: 10% serum, 5 mM or 10 mM cyclodextrin, 45 minutes
Experimental: We ran 20 μg of proteins per lane for western blots. We ran 8, 10, 12.5 and 15% gels depending on the size of proteins being detected by western blots. When there are two proteins having a similar size, gel is flowed in each protein to make western blot analysis about each protein. The immunoprecipitation was undergone by adding 200 μg of protein from solubilized cells and Protein G Sepharose or Protein A Sepharose (Sigma P3296/P9242) pre-conjugated with immunoprecipitation antibody to a buffer for immunoprecipitation, and slowly rotating the tube containing the sample buffer at 4° C. overnight. The buffer for immunoprecipitation comprises 20 mM Tris Ph 7.5, 1% Triton-X100, 150 mM NaCl, phosphatase inhibitor cocktail (Cell Signaling (#58709S)), and 10% glycerol. […] The precipitate in the solution was separated with 15% SDS-PAGE or 12.5% SDS-PAGE and analyzed by Western blotting.
(Test A) UOK121 cells were incubated in 10% serum medium with 5 mM or 10 mM α-, β-, and γ-cyclodextrins for 45 minutes. […] The cells were harvested and analyzed by Western Blots for the phosphorylation of AKT and ERK1/2 as an indicator of the AKT and ERK1/2 activations. […] 2.5 hours after adding each cyclodextrin (i.e., 2 hours after adding ABT-263), all the cells were washed with the medium twice, and next day the live cells were counted by trypan-blue dye exclusion assay.

UOK121 cells = test: Example 10 Test B: cyclodextrin with 2DG-ABT in UOK121 cells, live cells by trypan-blue dye exclusion; format: cell-based, human; conditions: 10 mM 2DG, 10 mM cyclodextrin, 0.3 μM ABT-263, 25 mM glucose
Experimental: Dead and live cells were counted by trypan-blue dye exclusion methods. These experiments were done in triplicate, and the error bars indicate the standard deviation.
(Test A) UOK121 cells were incubated in 10% serum medium with 5 mM or 10 mM α-, β-, and γ-cyclodextrins for 45 minutes. The same medium without any cyclodextrin was also incubated as a control. The cells were harvested and analyzed by Western Blots for the phosphorylation of AKT and ERK1/2 as an indicator of the AKT and ERK1/2 activations. (Test B) 10 mM 2DG was added to a medium of U0K121 cells in the presence of 25 mM glucose, and the medium was incubated for 1.5 hours. To the medium was added 10 mM α-, β-, or γ-cyclodextrin, and the medium was incubated for 30 minutes. Then, 0.3 μM ABT-263 was added thereto, and the medium was further incubated for 2 hours. Separately, a control that includes only α-, β-, or γ-cyclodextrin without 2DG or ABT-263, and another control that includes neither α-, β-, or γ-cyclodextrin, nor 2DG or ABT-263 were prepared. 2.5 hours after adding each cyclodextrin (i.e., 2 hours after adding ABT-263), all the cells were washed with the medium twice, and next day the live cells were counted by trypan-blue dye exclusion assay.

AKT [3] = test: Example 2 Method A: AKT phosphorylation in RCC4 cells stimulated with IGF1, serum free; format: cell-based; conditions: 10 mM 2DG 2 hours, 10 mM bCD (MBCD), 0-30 ng/ml IGF1 5 minutes
Experimental: We ran 20 μg of proteins per lane for western blots. We ran 8, 10, 12.5 and 15% gels depending on the size of proteins being detected by western blots. When there are two proteins having a similar size, gel is flowed in each protein to make western blot analysis about each protein. The immunoprecipitation was undergone by adding 200 μg of protein from solubilized cells and Protein G Sepharose or Protein A Sepharose (Sigma P3296/P9242) pre-conjugated with immunoprecipitation antibody to a buffer for immunoprecipitation, and slowly rotating the tube containing the sample buffer at 4° C. overnight. The buffer for immunoprecipitation comprises 20 mM Tris Ph 7.5, 1% Triton-X100, 150 mM NaCl, phosphatase inhibitor cocktail (Cell Signaling (#58709S)), and 10% glycerol. Next morning, the content in the tube was centrifuged. The precipitate was washed with the same buffer twice and dissolved in SDS buffer. The precipitate in the solution was separated with 15% SDS-PAGE or 12.5% SDS-PAGE and analyzed by Western blotting.
The bCD used herein was MBCD.
RCC4 cells were incubated in serum free media for 2 hours with or without 10 mM 2DG. In the last hour, 10 mM bCD was added to each one subset of the cells treated/untreated with 2DG. Then 0-30 ng/ml IGF1 was added and the incubation continued for 5 minutes before the cells were harvested and analyzed by Western blotting.

Bak-Bcl-xL complex, sequence (Q07817 whole entry, one chain of several): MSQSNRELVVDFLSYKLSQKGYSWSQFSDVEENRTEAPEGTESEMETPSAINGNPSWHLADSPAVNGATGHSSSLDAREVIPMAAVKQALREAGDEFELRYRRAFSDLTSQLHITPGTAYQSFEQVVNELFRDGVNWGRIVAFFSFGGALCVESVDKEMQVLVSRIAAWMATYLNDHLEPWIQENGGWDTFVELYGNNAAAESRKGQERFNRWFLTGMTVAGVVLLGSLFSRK

CC(O)COC[C@H]1O[C@@H]2O[C@H]3[C@H](O)[C@@H](O)[C@@H](O[C@H]4[C@H](O)[C@@H](O)[C@@H](O[C@H]5[C@H](O)[C@@H](O)[C@@H](O[C@H]6[C@H](O)[C@@H](O)[C@@H](O[C@H]7[C@H](O)[C@@H](O)[C@@H](O[C@H]8[C@H](O)[C@@H](O)[C@@H](O[C@H]1[C@H](O)[C@H]2O)O[C@@H]8COCC(C)O)O[C@@H]7COCC(C)O)O[C@@H]6COCC(C)O)O[C@@H]5COCC(C)O)O[C@@H]4COCC(C)O)O[C@@H]3COCC(C)O (stereo partly drawn) [HPBCD, (2-hydroxypropyl)-β-cyclodextrin]
amount that remains in circulation [1]: about 50%

CC1(C)CCC(c2ccc(Cl)cc2)=C(CN2CCN(c3ccc(C(=O)NS(=O)(=O)c4ccc(N[C@H](CCN5CCOCC5)CSc5ccccc5)c(S(=O)(=O)C(F)(F)F)c4)cc3)CC2)C1 [ABT, ABT-263]
Bak-Bcl-xL complex (Bak-Bcl-xL complex): caused the dissociation | release of cytochrome c from mitochondria (cytochrome c; with or without 20 μM z-VAD): took place only after the addition of ABT | time to full release of cytochrome c (cytochrome c; after ABT addition): ≤ 2 h | caspase 9 activation (caspase 9; RCC4 cells pre-treated with 2DG and bCD, 3 μM ABT): activated | time to full caspase 9 activation (caspase 9; after ABT addition, RCC4 cells pre-treated with 2DG-bCD): ≤ 2 h

OC[C@H]1O[C@@H]2O[C@H]3[C@H](O)[C@@H](O)[C@@H](O[C@H]4[C@H](O)[C@@H](O)[C@@H](O[C@H]5[C@H](O)[C@@H](O)[C@@H](O[C@H]6[C@H](O)[C@@H](O)[C@@H](O[C@H]7[C@H](O)[C@@H](O)[C@@H](O[C@H]8[C@H](O)[C@@H](O)[C@@H](O[C@H]1[C@H](O)[C@H]2O)O[C@@H]8CO)O[C@@H]7CO)O[C@@H]6CO)O[C@@H]5CO)O[C@@H]4CO)O[C@@H]3CO [β-cyclodextrin]
AKT activation (phosphorylation) (AKT [2]): lowered | enhancement of the combination effect of 2DG-ABT (live cells) (UOK121 cells): clearly enhanced

O=CC[C@@H](O)[C@H](O)[C@H](O)CO [2DG, 2-deoxyglucose]
AKT phosphorylation (AKT [3]): increasing the phosphorylation of AKT
